Test results: US7235536B2, “Cellulose sulfate and other sulfated polysaccharides to prevent and treat papilloma virus infection and other infections” (Rush Presbyterian-St. Luke's Medical Center, priority 2000, dated 2007)
Like-named read-outs stand apart in the source and are kept apart here. Marks after values point to notes of the source that are not given here.

How the values were obtained:
BPV-1 = BPV-1 focus-forming assay, cells pre-incubated with compound and washed before virus (Table D); format: cell-based, bovine papilloma virus; details: for Average ± standard deviation (foci/well): C127-D10 cells, washed before virus
Experimental: Microbicidal activity of compounds was also tested by pre-incubation of cells with compounds followed by addition of virus to compound-coated C127 cells. In these experiments, dilutions of compounds were added to cultures of C127 cells, incubated for 1 hr at 37° C., washed 3 times with media to remove unbound compound, prior to addition of approximately 100 focus-forming units of BPV-1. The cultures were incubated for an additional hour, washed three times to remove unbound virus, then the incubation was continued for two weeks with media changes every 3-4 days and foci counted as described above.
Pre-incubation of C127-D10 cells with compounds prior to addition of BPV-1 was tested to determine whether the microbicidal effects of CS and DS extended to a blockage of virus interaction with cell surfaces. In these experiments, titrations of compounds were added to cell cultures followed by washing away unbound reagent prior to addition of virus. After a one-hour incubation with virus, unbound virus was removed by washing and the cultures monitored for foci after two weeks.

HPV-11 = experiment: RT-PCR ELISA for transient infection of human A431 cells, HPV-11; format: cell-based, human papilloma virus; details: with virus (HPV-11)
Experimental: Cellulose sulfate and dextran sulfate were each prepared as a 2 mg/ml solution in 0.9% NaCl and tested for microbicidal activity using the in vitro HPV transient infection assay originally described by Smith and colleagues (Smith, L. H., C. Foster, M. E. Hitchcock, and R. Isseroff. 1993. In vitro HPV-11 infection of human foreskin. J. Invest. Dermatol. 101:292-295) with some modifications (Ludmerer, S. W., W. L. McClements, X. M. Wang, J. C. Ling, K. U. Jansen, and N. D. Christensen. 2000. HPV11 mutant virus-like parties elicit immune responses that neutralize virus and delineate a novel neutralizing domain. Virology 266:237-245). An ELISA-based read-out of Optical Density (OD) values using alkaline phosphatase cleavage of the substrate p-nitrophenyl phosphate was also used to measure HPV infection as described below.
A modification of the RT-PCR assay that incorporates an ELISA-based read-out (Boehringer-Mannheim) was also included to assess microbicidal activity. Replicate cell cultures of A431 cells were infected with an aliquot of infectious HPV virions as described above. After 4 days of culture, cells were harvested and RNA extracted. RNA was subjected to RT using downstream anti-sense (reverse) primers for HPV-11 or HPV-40 and β-actin (as a control/housekeeping cellular transcript) to initiate cDNA synthesis. The cDNA was processed through 2 sets of 30 cycles of PCR amplification using nested primers: the second set of cycles used digoxygenin (DIG)-dUTP to label the PCR products with DIG. DIG-labeled PCR products were denatured then renatured together with a biotinylated oligonucleotide specific for the targeted PCR product. Biotinylated products were detected in ELISA with plates coated with streptavidin (to capture the biotinylated target PCR product) then anti-DIG antibody and substrate. Labeled PCR products were added directly to ELISA plates, or titrated at 10-fold dilutions in duplicate for each cell culture for each virus dilution.

trichomonas vaginalis = experiment: Inhibition of Trichomonas growth, live count; format: cell-based; details: for number of live trichomonas: 5 mg/ml
Experimental: The inhibitory effect of CS on trichomonas vaginalis, protozoa known to cause vaginitis, is shown below. The organisms were grown in modified Diamond's medium. CS was mixed with the organism in modified Diamond's medium at a final concentration of about 5 mg/ml (5.12 mg/ml) and incubated anaerobically at 35° C. Samples were collected at various time points and the number of live trichomonas counted with a hemacytomer. The same procedure was performed in the absence of CS. The volume of the inoculum was varied as indicated in the Tables to study the effect of increasing amounts of the organism on the results.

[1] = system: Prevotella melaminogenica; experiment: Broth method MIC; format: cell-based; details: for CS MIC: Broth (study 2)
Gardnerella vaginalis = experiment: Broth method MIC; format: cell-based; details: for CS MIC: Broth (study 2)
[2] = system: Peptostreptococcus magnus; experiment: Broth method MIC; format: cell-based; details: for CS MIC: Broth (study 2)
[3] = system: Peptostreptococcus tetradius; experiment: Broth method MIC; format: cell-based; details: for CS MIC: Broth (study 2)
[4] = system: Peptostreptococcus asaccharolyticus; experiment: Broth method MIC; format: cell-based; details: for CS MIC: Broth (study 2)
[5] = system: Porphyromonas asaccharolytica; experiment: Agar method MIC; format: cell-based; details: for CS MIC: Agar
[6] = system: Bacteroides thetaiotaomicron; experiment: Agar method MIC; format: cell-based
Bacteroides fragilis = details: Agar

Substance: sodium cellulose sulfate
- Average ± standard deviation (foci/well) (BPV-1; 10 μg/ml): 103 ± 6.3 foci/well
- Average ± standard deviation (foci/well) (BPV-1; 100 μg/ml): 120 ± 8.4 foci/well
- Average ± standard deviation (foci/well) (BPV-1; 1,000 μg/ml): 87 ± 45.1 foci/well
- Average ± standard deviation (foci/well) (BPV-1; 10,000 μg/ml): 2 ± 1.3 foci/well
- microbicidal effects (BPV-1; C127-D10 cells pre-treated, except at 10 mg/ml): only weak microbicidal effects
- Mean (SD) of O.D. reading for RT-PCR ELISA, HPV-11 probe (HPV-11; 10 μg/ml at viral pretreatment): 1.485 (0.045) O.D.
- Mean (SD) of O.D. reading for RT-PCR ELISA, HPV-11 probe (HPV-11; 100 μg/ml at viral pretreatment): 0.049 (0.001) O.D.
- Mean (SD) of O.D. reading for RT-PCR ELISA, HPV-11 probe (HPV-11; 1000 μg/ml at viral pretreatment): 0.038 (0.001) O.D.
- growth of the trichomonas culture (trichomonas vaginalis; 5 mg/ml CS): Complete inhibition of growth
- number of live trichomonas (trichomonas vaginalis; 16 hr, 50 μl Trich): 0 organisms per ml
- number of live trichomonas (trichomonas vaginalis; 16 hr, 100 μl Trich): 0 organisms per ml
- number of live trichomonas (trichomonas vaginalis; 16 hr, 200 μl Trich): 0 organisms per ml
- number of live trichomonas (trichomonas vaginalis; 16 hr, 400 μl Trich): 0 organisms per ml
- number of live trichomonas (trichomonas vaginalis; 24 hr, 50 μl Trich): 0 organisms per ml
- number of live trichomonas (trichomonas vaginalis; 24 hr, 100 μl Trich): 0 organisms per ml
- number of live trichomonas (trichomonas vaginalis; 24 hr, 200 μl Trich): 0 organisms per ml
- number of live trichomonas (trichomonas vaginalis; 24 hr, 400 μl Trich): 0 organisms per ml
- number of live trichomonas (trichomonas vaginalis; 40 hr, 50 μl Trich): 0 organisms per ml
- number of live trichomonas (trichomonas vaginalis; 40 hr, 100 μl Trich): 0 organisms per ml
- number of live trichomonas (trichomonas vaginalis; 40 hr, 200 μl Trich): 0 organisms per ml
- number of live trichomonas (trichomonas vaginalis; 40 hr, 400 μl Trich): 0 organisms per ml
- number of live trichomonas (trichomonas vaginalis; 48 hr, 50 μl Trich): 0 organisms per ml
- number of live trichomonas (trichomonas vaginalis; 48 hr, 100 μl Trich): 0 organisms per ml
- number of live trichomonas (trichomonas vaginalis; 48 hr, 200 μl Trich): 0 organisms per ml
- number of live trichomonas (trichomonas vaginalis; 48 hr, 400 μl Trich): 0 organisms per ml
- growth inhibition ([1]; at the concentrations tested): Neither one of the strains of Prevotella melaminogenica were inhibited
- CS MIC ([1]; rma# 5657): NI (not inhibited by 10 mg/ml (the highest concentration tested))
- CS MIC ([1]; rma# 9052): NI (not inhibited by 10 mg/ml (the highest concentration tested))
- growth inhibition (Gardnerella vaginalis; both strains): inhibited
- CS MIC (Gardnerella vaginalis; rma# 12066): 5000 µg/mL
- CS MIC (Gardnerella vaginalis; rma# 12262): 5000 µg/mL
- growth inhibition ([2]; all strains): inhibited
- CS MIC ([2]; rma# 11598): 5000 µg/mL
- CS MIC ([2]; rma# 11658): 5000 µg/mL
- growth inhibition ([3]; all strains): inhibited
- CS MIC ([3]; rma# 11253): 5000 µg/mL
- CS MIC ([3]; rma# 11287): 5000 µg/mL
- growth inhibition ([4]; all strains): inhibited
- CS MIC ([4]; rma# 11587): 10000 µg/mL
- CS MIC ([4]; rma# 11607): 10000 µg/mL
- lowest concentration of compound that inhibited growth ([5]; Example 8, agar, 48 hours anaerobic, highest tested 625 μg/ml): 80 µg/mL
- CS MIC ([5]; rma# 11612): 80 µg/mL
- CS MIC ([5]; rma# 11656): >625 µg/mL
- CS MIC ([6]; ATCC (first listed)): >625 µg/mL
- CS MIC ([6]; rma# 11604): >625 µg/mL
- CS MIC ([6]; rma# 11651): >625 µg/mL
- CS MIC (Fusobacterium nucleatum): >0.625** mg/ml
- CS MIC (Bacteroides fragilis; ATCC (first listed)): >625 µg/mL
- CS MIC (Bacteroides fragilis; rma# 11647): >625 µg/mL
- CS MIC (Bacteroides fragilis; rma# 11652): >625 µg/mL
